# Experimental data taken from PubChem BioAssay AID1259407 (Chemical Carcinogenesis Research Information System (CCRIS), 2018).
# The source made the active and inactive calls. The rule behind the calls is not given here.
# Test system: CCRIS mutagenicity, Ames/micronucleus/aberration tests
# Assay: CCRIS mutagenicity studies
smiles,measurement,setting,value
Nc1nc2cc(Cl)c(Cl)cc2s1,mutagenic call,"Test System: AMES SALMONELLA TYPHIMURIUM, Strain/Indicator: TA98, Metabolic Activation: HAMSTER, LIVER, S-9, AROCLOR 1254, Method: STANDARD PLATE",inactive; negative
same,mutagenic call,"Test System: AMES SALMONELLA TYPHIMURIUM, Strain/Indicator: TA98, Metabolic Activation: NONE, Method: STANDARD PLATE",inactive; negative
same,mutagenic call,"Test System: AMES SALMONELLA TYPHIMURIUM, Strain/Indicator: TA98, Metabolic Activation: RAT, LIVER, S-9, AROCLOR 1254, Method: STANDARD PLATE",inactive; negative
same,mutagenic call,"Test System: AMES SALMONELLA TYPHIMURIUM, Strain/Indicator: TA100, Metabolic Activation: HAMSTER, LIVER, S-9, AROCLOR 1254, Method: STANDARD PLATE",inactive; negative
same,mutagenic call,"Test System: AMES SALMONELLA TYPHIMURIUM, Strain/Indicator: TA100, Metabolic Activation: NONE, Method: STANDARD PLATE",inactive; negative
same,mutagenic call,"Test System: AMES SALMONELLA TYPHIMURIUM, Strain/Indicator: TA100, Metabolic Activation: RAT, LIVER, S-9, AROCLOR 1254, Method: STANDARD PLATE",inactive; negative
same,mutagenic call,"Test System: AMES SALMONELLA TYPHIMURIUM, Strain/Indicator: TA1535, Metabolic Activation: HAMSTER, LIVER, S-9, AROCLOR 1254, Method: STANDARD PLATE",inactive; negative
same,mutagenic call,"Test System: AMES SALMONELLA TYPHIMURIUM, Strain/Indicator: TA1535, Metabolic Activation: NONE, Method: STANDARD PLATE",inactive; negative
same,mutagenic call,"Test System: AMES SALMONELLA TYPHIMURIUM, Strain/Indicator: TA1535, Metabolic Activation: RAT, LIVER, S-9, AROCLOR 1254, Method: STANDARD PLATE",inactive; negative
same,mutagenic call,"Test System: AMES SALMONELLA TYPHIMURIUM, Strain/Indicator: TA1537, Metabolic Activation: HAMSTER, LIVER, S-9, AROCLOR 1254, Method: STANDARD PLATE",inactive; negative
same,mutagenic call,"Test System: AMES SALMONELLA TYPHIMURIUM, Strain/Indicator: TA1537, Metabolic Activation: NONE, Method: STANDARD PLATE",inactive; negative
same,mutagenic call,"Test System: AMES SALMONELLA TYPHIMURIUM, Strain/Indicator: TA1537, Metabolic Activation: RAT, LIVER, S-9, AROCLOR 1254, Method: STANDARD PLATE",inactive; negative
same,mutagenic call,"Test System: AMES SALMONELLA TYPHIMURIUM, Strain/Indicator: TA1538, Metabolic Activation: HAMSTER, LIVER, S-9, AROCLOR 1254, Method: STANDARD PLATE",inactive; negative
same,mutagenic call,"Test System: AMES SALMONELLA TYPHIMURIUM, Strain/Indicator: TA1538, Metabolic Activation: NONE, Method: STANDARD PLATE",inactive; negative
same,mutagenic call,"Test System: AMES SALMONELLA TYPHIMURIUM, Strain/Indicator: TA1538, Metabolic Activation: RAT, LIVER, S-9, AROCLOR 1254, Method: STANDARD PLATE",inactive; negative
same,mutagenic call,"Test System: MOUSE LYMPHOMA, Strain/Indicator: L5178Y (TK+/TK-), Metabolic Activation: NONE, Method: SUSPENSION/PLATE",inactive; negative. reevaluation of results: negative
same,mutagenic call,"Test System: MOUSE LYMPHOMA, Strain/Indicator: L5178Y (TK+/TK-), Metabolic Activation: RAT, LIVER, S-9, AROCLOR 1254, Method: SUSPENSION/PLATE",inactive; negative. reevaluation of results: negative
O=[N+]([O-])c1ccccc1CCO,mutagenic call,"Test System: AMES SALMONELLA TYPHIMURIUM, Strain/Indicator: TA98, Metabolic Activation: HAMSTER, LIVER, S-9, AROCLOR 1254 (10%), Method: PREINCUBATION",inactive; negative
same,mutagenic call,"Test System: AMES SALMONELLA TYPHIMURIUM, Strain/Indicator: TA98, Metabolic Activation: HAMSTER, LIVER, S-9, AROCLOR 1254 (30%), Method: PREINCUBATION",inactive; negative
same,mutagenic call,"Test System: AMES SALMONELLA TYPHIMURIUM, Strain/Indicator: TA98, Metabolic Activation: NONE, Method: PREINCUBATION",inactive; negative
same,mutagenic call,"Test System: AMES SALMONELLA TYPHIMURIUM, Strain/Indicator: TA98, Metabolic Activation: RAT, LIVER, S-9, AROCLOR 1254 (10%), Method: PREINCUBATION",inactive; negative
same,mutagenic call,"Test System: AMES SALMONELLA TYPHIMURIUM, Strain/Indicator: TA98, Metabolic Activation: RAT, LIVER, S-9, AROCLOR 1254 (30%), Method: PREINCUBATION",inactive; negative
same,mutagenic call,"Test System: AMES SALMONELLA TYPHIMURIUM, Strain/Indicator: TA100, Metabolic Activation: HAMSTER, LIVER, S-9, AROCLOR 1254 (10%), Method: PREINCUBATION",inactive; negative
same,mutagenic call,"Test System: AMES SALMONELLA TYPHIMURIUM, Strain/Indicator: TA100, Metabolic Activation: HAMSTER, LIVER, S-9, AROCLOR 1254 (30%), Method: PREINCUBATION",active; positive
same,mutagenic call,"Test System: AMES SALMONELLA TYPHIMURIUM, Strain/Indicator: TA100, Metabolic Activation: NONE, Method: PREINCUBATION",inactive; negative
same,mutagenic call,"Test System: AMES SALMONELLA TYPHIMURIUM, Strain/Indicator: TA100, Metabolic Activation: RAT, LIVER, S-9, AROCLOR 1254 (5%), Method: PREINCUBATION",inactive; negative
same,mutagenic call,"Test System: AMES SALMONELLA TYPHIMURIUM, Strain/Indicator: TA100, Metabolic Activation: RAT, LIVER, S-9, AROCLOR 1254 (10%), Method: PREINCUBATION",inactive; negative
same,mutagenic call,"Test System: AMES SALMONELLA TYPHIMURIUM, Strain/Indicator: TA100, Metabolic Activation: RAT, LIVER, S-9, AROCLOR 1254 (30%), Method: PREINCUBATION",inactive; negative
same,mutagenic call,"Test System: AMES SALMONELLA TYPHIMURIUM, Strain/Indicator: TA1535, Metabolic Activation: HAMSTER, LIVER, S-9, AROCLOR 1254 (10%), Method: PREINCUBATION",inactive; negative
same,mutagenic call,"Test System: AMES SALMONELLA TYPHIMURIUM, Strain/Indicator: TA1535, Metabolic Activation: NONE, Method: PREINCUBATION",inactive; negative
same,mutagenic call,"Test System: AMES SALMONELLA TYPHIMURIUM, Strain/Indicator: TA1535, Metabolic Activation: RAT, LIVER, S-9, AROCLOR 1254 (10%), Method: PREINCUBATION",inactive; negative
same,mutagenic call,"Test System: AMES SALMONELLA TYPHIMURIUM, Strain/Indicator: TA1537, Metabolic Activation: HAMSTER, LIVER, S-9, AROCLOR 1254 (10%), Method: PREINCUBATION",inactive; negative
same,mutagenic call,"Test System: AMES SALMONELLA TYPHIMURIUM, Strain/Indicator: TA1537, Metabolic Activation: NONE, Method: PREINCUBATION",inactive; negative
same,mutagenic call,"Test System: AMES SALMONELLA TYPHIMURIUM, Strain/Indicator: TA1537, Metabolic Activation: RAT, LIVER, S-9, AROCLOR 1254 (10%), Method: PREINCUBATION",inactive; negative
